Target: T1, human ENT1 (Homo sapiens, UniProt Q99808)
T1 sequence (Q99808 1-456): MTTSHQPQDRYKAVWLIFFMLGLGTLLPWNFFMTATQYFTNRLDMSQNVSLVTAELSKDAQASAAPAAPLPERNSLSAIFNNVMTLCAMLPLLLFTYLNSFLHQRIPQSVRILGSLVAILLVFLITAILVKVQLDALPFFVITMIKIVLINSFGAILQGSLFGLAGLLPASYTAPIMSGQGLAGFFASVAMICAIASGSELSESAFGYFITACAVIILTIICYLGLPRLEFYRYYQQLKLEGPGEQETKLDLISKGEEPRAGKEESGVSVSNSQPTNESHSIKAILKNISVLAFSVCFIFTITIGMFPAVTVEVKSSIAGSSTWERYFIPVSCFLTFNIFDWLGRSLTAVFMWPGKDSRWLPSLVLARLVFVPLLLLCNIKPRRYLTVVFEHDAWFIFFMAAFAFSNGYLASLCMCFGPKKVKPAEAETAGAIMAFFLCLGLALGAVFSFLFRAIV
Test: ENT1 binding assay (competition with Sahenta-DY647 on JAR cells)
Set-up: JAR cells expressing ENT1 were bought from ATCC; host or cells: JAR cells
Conditions: binned IC50
Summary of the method: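 JAR cells were incubated with test compounds and the fluorescent ligand Sahenta-DY647 in competition. Plates were washed twice by centrifugation (4 min, 400 rcf, 4 °C). Binding potency was derived from the final fluorescence.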

| Compound | IC50 |
| --- | --- |
| COCCN(CCOC)c1nc(N2CCN(c3nc(C)ns3)CC2)c2nc(N(CCOC)CCOC)nc(N3CCC(OC)CC3)c2n1 [Compound 123, N2,N2,N6,N6-tetrakis(2-methoxyethyl)-4-(4-methoxypiperidin-1-yl)-8-(4-(3-methyl-1,2,4-thiadiazol-5-yl)piperazin-1-yl)pyrimido[5,4-d]pyrimidine-2,6-diamine] | 100 to 500 nM |
| COCCN(CCOC)c1nc(N2CCC(OC)CC2)c2nc(N(CCOC)CCOC)nc(OCc3cnn(C(C)C)c3)c2n1 [Compound 164, 4-((1-isopropyl-1H-pyrazol-4-yl)methoxy)-N2,N2,N6,N6-tetrakis(2-methoxyethyl)-8-(4-methoxypiperidin-1-yl)pyrimido[5,4-d]pyrimidine-2,6-diamine] | 500 to 1000 nM |
| COCCN(CCOC)c1nc(N2CCC(OC)CC2)c2nc(N(CCOC)CCOC)nc(NCc3cccc(Cl)c3)c2n1 [Compound 141, N4-(3-chlorobenzyl)-N2,N2,N6,N6-tetrakis(2-methoxyethyl)-8-(4-methoxypiperidin-1-yl)pyrimido[5,4-d]pyrimidine-2,4,6-triamine] | < 100 nM |
| COCCN(CCOC)c1nc(N2CCN(C)C(=O)C2)c2nc(N(CCOC)CCOC)nc(N(C)Cc3cccc(Cl)c3)c2n1 [Compound 234, 4-(2,6-bis(bis(2-methoxyethyl)amino)-8-((3-chlorobenzyl)(methyl)amino)pyrimido[5,4-d]pyrimidin-4-yl)-1-methylpiperazin-2-one] | < 100 nM |
| COCCN(CCOC)c1nc(N2CCN(c3ncn(C)n3)CC2)c2nc(N(CCOC)CCOC)nc(NCc3cccc(C(N)=O)c3)c2n1 [Compound 229, 3-(((2,6-bis(bis(2-methoxyethyl)amino)-8-(4-(1-methyl-1H-1,2,4-triazol-3-yl)piperazin-1-yl)pyrimido[5,4-d]pyrimidin-4-yl)amino)methyl)benzamide] | 100 to 500 nM |
| COCCN(CCOC)c1nc(N2CCN(C)C(=O)C2)c2nc(N(CCOC)CCOC)nc(NCc3ccccc3)c2n1 [Compound 190, 4-(8-(benzylamino)-2,6-bis(bis(2-methoxyethyl)amino)pyrimido[5,4-d]pyrimidin-4-yl)-1-methylpiperazin-2-one] | < 100 nM |
| COCCN(CCOC)c1nc(N2CCC(OC)CC2)c2nc(N(CCO)CCCS(C)(=O)=O)nc(N3CCN(C)C(=O)C3)c2n1 [Compound 280, 4-(6-(bis(2-methoxyethyl)amino)-2-((2-hydroxyethyl)(3-(methylsulfonyl)propyl)amino)-8-(4-methoxypiperidin-1-yl)pyrimido[5,4-d]pyrimidin-4-yl)-1-methylpiperazin-2-one] | 100 to 500 nM |
| COCCN(CCOC)c1nc(N2CCC(C)(OC)CC2)c2nc(N(CCOC)CCOC)nc(N3CCC(C)(OC)CC3)c2n1 [Compound 201, 4,8-bis(4-methoxy-4-methylpiperidin-1-yl)-N2,N2,N6,N6-tetrakis(2-methoxyethyl)pyrimido[5,4-d]pyrimidine-2,6-diamine] | 100 to 500 nM |
| COCCN(CCOC)c1nc(N2CCC(OC)CC2)c2nc(N(CCOC)CCOC)nc(N3CCC(COC)CC3)c2n1 [Compound 76, N2,N2,N6,N6-tetrakis(2-methoxyethyl)-4-(4-(methoxymethyl)piperidin-1-yl)-8-(4-methoxypiperidin-1-yl)pyrimido[5,4-d]pyrimidine-2,6-diamine] | 500 to 1000 nM |
| COCCN(CCOC)c1nc(N2CCCC(F)(F)C2)c2nc(N(CCOC)CCOC)nc(N3CCCC(F)(F)C3)c2n1 [Compound 33, 4,8-bis(3,3-difluoropiperidin-1-yl)-N2,N2,N6,N6-tetrakis(2-methoxyethyl)pyrimido[5,4-d]pyrimidine-2,6-diamine] | < 100 nM |
| COCCN(CCOC)c1nc(N2CCN(c3cccnc3)CC2)c2nc(N(CCOC)CCOC)nc(N3CCC(OC)CC3)c2n1 [Compound 118, N2,N2,N6,N6-tetrakis(2-methoxyethyl)-4-(4-methoxypiperidin-1-yl)-8-(4-(pyridin-3-yl)piperazin-1-yl)pyrimido[5,4-d]pyrimidine-2,6-diamine] | 100 to 500 nM |

The remaining lines, values ahead:

| IC50 | Compound |
| --- | --- |
| 500 to 1000 nM | COCCN(CCOC)c1nc(N2CCC(O)C2)c2nc(N(CCOC)CCOC)nc(N3CCC(OC)CC3)c2n1 (centres unmarked) [Compound 94, 1-(2,6-bis(bis(2-methoxyethyl)amino)-8-(4-methoxypiperidin-1-yl)pyrimido[5,4-d]pyrimidin-4-yl)pyrrolidin-3-ol] |
| < 100 nM | COCCN(CCOC)c1nc(N2CCC(OC)CC2)c2nc(N(CCOC)CCOC)nc(NCc3cccc(C#N)c3)c2n1 [Compound 145, 3-(((2,6-bis(bis(2-methoxyethyl)amino)-8-(4-methoxypiperidin-1-yl)pyrimido[5,4-d]pyrimidin-4-yl)amino)methyl)benzonitrile] |
| < 100 nM | COCCN(CCOC)c1nc(N2CCC(OC)CC2)c2nc(N(CCO)CCO)nc(N3CC(=O)N(C)C(=O)C3)c2n1 [Compound 307, 4-(2-(bis(2-hydroxyethyl)amino)-6-(bis(2-methoxyethyl)amino)-8-(4-methoxypiperidin-1-yl)pyrimido[5,4-d]pyrimidin-4-yl)-1-methylpiperazine-2,6-dione] |
| 500 to 1000 nM | COCCN(CCOC)c1nc(N2CCN(c3nnc(C)o3)CC2)c2nc(N(CCOC)CCOC)nc(N3CCN(c4nnc(C)o4)CC3)c2n1 [Compound 130, N2,N2,N6,N6-tetrakis(2-methoxyethyl)-4,8-bis(4-(5-methyl-1,3,4-oxadiazol-2-yl)piperazin-1-yl)pyrimido[5,4-d]pyrimidine-2,6-diamine] |
| 500 to 1000 nM | COCCN(CCOC)c1nc(N2CCC(OC)CC2)c2nc(N(CCOC)CCOC)nc(NCc3cnc(Cl)s3)c2n1 [Compound 160, N4-((2-chlorothiazol-5-yl)methyl)-N2,N2,N6,N6-tetrakis(2-methoxyethyl)-8-(4-methoxypiperidin-1-yl)pyrimido[5,4-d]pyrimidine-2,4,6-triamine] |
| 500 to 1000 nM | COCCN(CCOC)c1nc(N2CCC(OC)CC2)c2nc(N(CCOC)CCOCCCN3CCOCC3)nc(N3CCC(OC)CC3)c2n1 [Compound 44, N2,N2,N6-tris(2-methoxyethyl)-4,8-bis(4-methoxypiperidin-1-yl)-N6-(2-(3-morpholinopropoxy)ethyl)pyrimido[5,4-d]pyrimidine-2,6-diamine] |
| < 100 nM | COCCN(CCOC)c1nc(N2CCS(=O)(=O)CC2)c2nc(N(CCOC)CCOC)nc(N3CCC(OC)CC3)c2n1 [Compound 77, 4-(2,6-bis(bis(2-methoxyethyl)amino)-8-(4-methoxypiperidin-1-yl)pyrimido[5,4-d]pyrimidin-4-yl)thiomorpholine 1,1-dioxide] |
| 100 to 500 nM | COCCN(CCOC)c1nc(N2CCC(OC)CC2)c2nc(N(CCOC)CCOC)nc(NCc3cnn(C(C)C)c3)c2n1 [Compound 163, N4-((1-isopropyl-1H-pyrazol-4-yl)methyl)-N2,N2,N6,N6-tetrakis(2-methoxyethyl)-8-(4-methoxypiperidin-1-yl)pyrimido[5,4-d]pyrimidine-2,4,6-triamine] |
| 500 to 1000 nM | COCCN(CCOC)c1nc(N2CCC(OC)CC2)c2nc(N(CCOC)CCOC)nc(NCc3cnco3)c2n1 [Compound 60, N2,N2,N6,N6-tetrakis(2-methoxyethyl)-8-(4-methoxypiperidin-1-yl)-N4-(oxazol-5-ylmethyl)pyrimido[5,4-d]pyrimidine-2,4,6-triamine] |
| 500 to 1000 nM | COCCN(CCOC)c1nc(N2CCN(C)C(=O)C2)c2nc(N3CCn4ncnc4C3)nc(N3CCC(OC)CC3)c2n1 [Compound 283, 4-(2-(bis(2-methoxyethyl)amino)-6-(5,6-dihydro-[1,2,4]triazolo[1,5-a]pyrazin-7(8H)-yl)-8-(4-methoxypiperidin-1-yl)pyrimido[5,4-d]pyrimidin-4-yl)-1-methylpiperazin-2-one] |
| < 100 nM | COCCN(CCOC)c1nc(N2CCn3nccc3C2)c2nc(N(CCOC)CCOC)nc(N3CCN(C)C(=O)C3)c2n1 [Compound 260, 4-(2,6-bis(bis(2-methoxyethyl)amino)-8-(6,7-dihydropyrazolo[1,5-a]pyrazin-5(4H)-yl)pyrimido[5,4-d]pyrimidin-4-yl)-1-methylpiperazin-2-one] |
| < 100 nM | COCCN(CCOC)c1nc(N2CCS(=O)(=O)CC2)c2nc(N(CCOC)CCOC)nc(NCc3ccccc3)c2n1 [Compound 7] |
| 100 to 500 nM | COCCN(CCOC)c1nc(N2CCC(OC)CC2)c2nc(N(CCOC)CCOC)nc(N(C)Cc3ccncc3)c2n1 [Compound 82, N2,N2,N6,N6-tetrakis(2-methoxyethyl)-8-(4-methoxypiperidin-1-yl)-N4-methyl-N4-(pyridin-4-ylmethyl)pyrimido[5,4-d]pyrimidine-2,4,6-triamine] |
| < 100 nM | COCCN(CCOC)c1nc(N2CCC(OC)CC2)c2nc(N(CCOC)CCOC)nc(N(C)Cc3ccc(OC)c(OC)c3)c2n1 [Compound 169, N4-(3,4-dimethoxybenzyl)-N2,N2,N6,N6-tetrakis(2-methoxyethyl)-8-(4-methoxypiperidin-1-yl)-N4-methylpyrimido[5,4-d]pyrimidine-2,4,6-triamine] |
| < 100 nM | COCCN(CCOC)c1nc(N2CCn3cncc3C2)c2nc(N(CCOC)CCOC)nc(N3CCC(OC)CC3)c2n1 [Compound 114, 4-(5,6-dihydroimidazo[1,5-a]pyrazin-7(8H)-yl)-N2,N2,N6,N6-tetrakis(2-methoxyethyl)-8-(4-methoxypiperidin-1-yl)pyrimido[5,4-d]pyrimidine-2,6-diamine] |
